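Where inhibition never reached the appropriate level, the endpoint shown equals the highest concentration tested. Otherwise, values were interpolated linearly from a five-concentration, 48-hour dose response in 96-well plates. At the GI50, growth is halved.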 Calls of active or inactive are those of the source. No stated cut-off is given here; in the data, active = GI50 up to about 1.1 µM and inactive = higher.
What was measured:
Assay in all cases: NCI-60 cell line screen, 48 h
SF-539 = system: SF-539
HOP-92 = system: HOP-92
SK-OV-3 = system: SK-OV-3
SW-620 = system: SW-620
OVCAR-3 = system: OVCAR-3
OVCAR-8 = system: OVCAR-8
KM-20L2 = system: KM-20L2
DLD-1 = system: DLD-1
SN12C = system: SN12C
UACC-257 = system: UACC-257
NCI-H460 = system: NCI-H460
SNB-75 = system: SNB-75
HT-29 = system: HT-29
HL-60 = system: HL-60
XF498 = system: XF498
SF-295 = system: SF-295
RXF 393 = system: RXF 393
MOLT-4 = system: MOLT-4
LOX IMVI = system: LOX IMVI
SK-MEL-28 = system: SK-MEL-28
DMS-114 = system: DMS-114
SNB-78 = system: SNB-78
UACC-62 = system: UACC-62
CCRF-CEM = system: CCRF-CEM
IGROV-1 = system: IGROV-1
786-0 = system: 786-0
DMS-273 = system: DMS-273
SNB-19 = system: SNB-19
LXFL 529 = system: LXFL 529
OVCAR-5 = system: OVCAR-5
NCI-H522 = system: NCI-H522
SK-MEL-2 = system: SK-MEL-2
U-251 = system: U-251
A549 = system: A549
A498 = system: A498
UO-31 = system: UO-31
M19-MEL = system: M19-MEL
M14 = system: M14
Malme-3M = system: Malme-3M
KM12 = system: KM12
HCT-15 = system: HCT-15
SK-MEL-5 = system: SK-MEL-5
RXF 631 = system: RXF 631
K562 = system: K562
ACHN = system: ACHN
COLO 205 = system: COLO 205
HCC 2998 = system: HCC 2998
TK-10 = system: TK-10
NCI-H23 = system: NCI-H23
EKVX = system: EKVX
SF-268 = system: SF-268
HCT-116 = system: HCT-116
SR = system: SR
HOP-18 = system: HOP-18

Question: How did the GI50 (SF-539) turn out when `COC(=O)CCCCCOS(=O)(=O)c1ccc(C)cc1` was run?
Answer: > 100 µM (inactive)

Question: What about the GI50 (HOP-92) of the same compound?
Answer: > 100 µM (inactive)

Question: And the GI50 (SK-OV-3)?
Answer: > 100 µM (inactive)

Question: And the GI50 (SW-620)?
Answer: > 100 µM (inactive)

Question: And the GI50 (OVCAR-3)?
Answer: > 100 µM (inactive)

Question: What about the GI50 (OVCAR-8) of the same compound?
Answer: > 100 µM (inactive)

Question: And the GI50 (KM-20L2)?
Answer: > 100 µM (inactive)

Question: What about the GI50 (DLD-1) of the same compound?
Answer: > 100 µM (inactive)

Question: And the GI50 (SN12C)?
Answer: > 100 µM (inactive)

Question: And the GI50 (UACC-257)?
Answer: > 100 µM (inactive)

Question: And the GI50 (NCI-H460)?
Answer: > 100 µM (inactive)

Question: And the GI50 (SNB-75)?
Answer: > 100 µM (inactive)

Question: And the GI50 (HT-29)?
Answer: > 100 µM (inactive)

Question: What about the GI50 (HL-60) of the same compound?
Answer: > 100 µM (inactive)

Question: And the GI50 (XF498)?
Answer: > 100 µM (inactive)

Question: What about the GI50 (SF-295) of the same compound?
Answer: > 100 µM (inactive)

Question: And the GI50 (RXF 393)?
Answer: > 100 µM (inactive)

Question: What about the GI50 (MOLT-4) of the same compound?
Answer: 78.7 µM (inactive)

Question: And the GI50 (LOX IMVI)?
Answer: > 100 µM (inactive)

Question: What about the GI50 (SK-MEL-28) of the same compound?
Answer: > 100 µM (inactive)

Question: And the GI50 (DMS-114)?
Answer: > 100 µM (inactive)

Question: What about the GI50 (SNB-78) of the same compound?
Answer: > 100 µM (inactive)

Question: What about the GI50 (UACC-62) of the same compound?
Answer: > 100 µM (inactive)

Question: What about the GI50 (CCRF-CEM) of the same compound?
Answer: > 100 µM (inactive)

Question: What about the GI50 (IGROV-1) of the same compound?
Answer: > 100 µM (inactive)

Question: And the GI50 (786-0)?
Answer: > 100 µM (inactive)

Question: And the GI50 (DMS-273)?
Answer: > 100 µM (inactive)

Question: What about the GI50 (SNB-19) of the same compound?
Answer: > 100 µM (inactive)

Question: And the GI50 (LXFL 529)?
Answer: > 100 µM (inactive)

Question: And the GI50 (OVCAR-5)?
Answer: > 100 µM (inactive)

Question: And the GI50 (NCI-H522)?
Answer: > 100 µM (inactive)

Question: What about the GI50 (SK-MEL-2) of the same compound?
Answer: > 100 µM (inactive)

Question: What about the GI50 (U-251) of the same compound?
Answer: > 100 µM (inactive)

Question: And the GI50 (A549)?
Answer: > 100 µM (inactive)

Question: What about the GI50 (A498) of the same compound?
Answer: > 100 µM (inactive)

Question: What about the GI50 (UO-31) of the same compound?
Answer: > 100 µM (inactive)

Question: And the GI50 (M19-MEL)?
Answer: > 100 µM (inactive)

Question: And the GI50 (M14)?
Answer: > 100 µM (inactive)

Question: What about the GI50 (Malme-3M) of the same compound?
Answer: > 100 µM (inactive)

Question: What about the GI50 (KM12) of the same compound?
Answer: > 100 µM (inactive)

Question: And the GI50 (HCT-15)?
Answer: > 100 µM

Question: What about the GI50 (SK-MEL-5) of the same compound?
Answer: > 100 µM (inactive)

Question: And the GI50 (RXF 631)?
Answer: > 100 µM (inactive)

Question: And the GI50 (K562)?
Answer: > 100 µM (inactive)

Question: And the GI50 (ACHN)?
Answer: > 100 µM (inactive)

Question: And the GI50 (COLO 205)?
Answer: > 100 µM (inactive)

Question: And the GI50 (HCC 2998)?
Answer: > 100 µM (inactive)

Question: And the GI50 (TK-10)?
Answer: > 100 µM (inactive)

Question: What about the GI50 (NCI-H23) of the same compound?
Answer: > 100 µM (inactive)

Question: What about the GI50 (EKVX) of the same compound?
Answer: > 100 µM (inactive)

Question: And the GI50 (SF-268)?
Answer: > 100 µM (inactive)

Question: What about the GI50 (HCT-116) of the same compound?
Answer: > 100 µM (inactive)

Question: What about the GI50 (SR) of the same compound?
Answer: > 100 µM (inactive)

Question: What about the GI50 (HOP-18) of the same compound?
Answer: > 100 µM (inactive)
